Data: paper PMC11249646, “Small-Molecule Disruptors of the Interaction between Calcium- and Integrin-Binding Protein 1 and Integrin αIIbβ3 as Novel Antiplatelet Agents” (ACS Pharmacology & Translational Science, 2024)
Where two headings read alike, the source gives them in different places.

Assays:
[1] = target: T1, GST-CIB1 : F-scrambled peptide (Homo sapiens, UniProt Q99828); test: FP scrambled-peptide counter screen, 1536-well format; format: binding; settings: for Curve Class (counterscreen) / COUNTERSCREEN Curve Class: qHTS curve class; for IC50: read-out: IC50 [μM] (counterscreen)
T1 construct: made in house; host or cells: BL-21 plus RIL cells (E. coli)
T1 sequence (Q99828 1-191): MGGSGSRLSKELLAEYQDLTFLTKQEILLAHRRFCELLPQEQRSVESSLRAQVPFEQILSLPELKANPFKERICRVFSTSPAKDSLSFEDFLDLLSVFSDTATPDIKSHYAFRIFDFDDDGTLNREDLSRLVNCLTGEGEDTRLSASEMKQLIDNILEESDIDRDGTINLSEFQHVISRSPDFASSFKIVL

[2] = target: T2, CIB1 and αIIb interaction (CIB1-GST : F-αIIb peptide) (Homo sapiens, UniProt Q99828); test: FP assay, 1536-well qHTS format (primary and confirmatory screen); format: binding; settings: for Curve Class (confirmatory screen) / CONFIRMATORY SCREEN Curve Class: qHTS curve class
T2 construct: made in house; host or cells: BL-21 plus RIL cells (E. coli)
T2 sequence (Q99828 1-191): T1 sequence (Q99828 1-191)

[3] = counterscreen, negative sign = inhibitory curve
[4] = confirmatory screen, negative sign = inhibitory curve
[5] = confirmatory screen, read-out: IC50 [μM] (confirmatory screen)
[6] = qHTS FP screen hits, Table S2, negative = inhibition
[7] = qHTS FP screen hits, Table S2, read-out: IC50
[8] = Table S3, counterscreen, YES/NO call
[9] = Table S3, counterscreen, a negative sign marks inhibitory curves
[10] = Table S3, counterscreen, negative = inhibition
[11] = Table S3, confirmatory screen, a negative sign marks inhibitory curves
[12] = Table S3, confirmatory screen, negative = inhibition
[13] = qHTS primary screen hits, Table S2, negative = inhibition
[14] = qHTS primary screen hits, Table S2, negative sign = inhibitory curve, several classes where COUNT > 1
[15] = qHTS primary screen hits, Table S2, read-out: IC50
[16] = qHTS primary screen hits, Table S2, negative sign = inhibitory curve
[17] = qHTS FP screen hits, Table S2, one class per curve where COUNT > 1, negative sign = inhibitory curve
[18] = Table S3, confirmatory screen, YES/NO call
[19] = Table S3, confirmatory screen, read-out: IC50 [μM] (confirmatory screen)
[20] = scrambled-peptide counterscreen
[21] = scrambled-peptide counterscreen, YES/NO call
[22] = confirmatory screen, YES/NO call
[23] = confirmatory screen, negative = inhibition

| Structure (SMILES) | Efficacy (%) (counterscreen) ([1]; counterscreen) | Curve Class (counterscreen) [1, 3] | Efficacy (%) (confirmatory screen) ([2]; confirmatory screen) | Confirm? (confirmatory screen) ([2]; confirmatory screen, YES/NO) | Curve Class (confirmatory screen) [2, 4] | Efficacy (%) [2, 6] | IC50 [2, 7] | Curve Class (counterscreen) [1, 9] | Efficacy (%) (counterscreen) [1, 10] | IC50 ([1]; Table S3, counterscreen) | Curve Class (confirmatory screen) [2, 11] | Efficacy (%) (confirmatory screen) [2, 12] | Efficacy (%) [2, 13] | Curve Class [2, 14] | IC50 [2, 15] | other results |
| --- | --- | --- | --- | --- | --- | --- | --- | --- | --- | --- | --- | --- | --- | --- | --- | --- |
| CCOC(=O)C1CCN(C(=O)C(C)(C)NC(=O)Nc2ccc(C#N)cc2)CC1.O=C(O)C(F)(F)F [NCGC00242565-01] | -30% | -1.4 | -28% | YES | -1.4 | -22% | 2.2 µM | – | – | – | – | – | – | – | – | IC50 ([1]; counterscreen): 15.8 µM; IC50 [2, 5]: 7.9 µM |
| CC(C)c1ccc(NC(=S)N/N=C2\C(=O)Nc3ccccc32)cc1.O=C(O)C(F)(F)F [NCGC00242646-01] | – | – | – | – | – | – | – | -1.2 | -36% | 12.6 µM | 4 | -28% | -16% | -1.4 | 10 µM | Confirm? (counterscreen) [1, 8]: YES |
| O=C(O)C(F)(F)F.O=C1Nc2ccccc2/C1=N/NC(=S)Nc1cccnc1 [NCGC00242647-01] | – | – | – | – | – | – | – | – | – | – | – | – | -32% | -1.4 | 17.8 µM | COUNTERSCREEN Efficacy (%) ([1]; counterscreen): -17%; COUNTERSCREEN Curve Class ([1]; counterscreen): 4; CONFIRMATORY SCREEN Efficacy (%) ([2]; confirmatory screen): -44%; CONFIRMATORY SCREEN Curve Class ([2]; confirmatory screen): 4 |
| CCc1ccc(NC(=O)C(=O)NNC(=O)c2cccs2)cc1.O=C(O)C(F)(F)F [NCGC00244112-01] | – | – | – | – | – | – | – | – | 71% | 89.1 µM | 4 | 0% | -22% | – | 3.2 µM | Curve Class [2, 16]: -1.4 |
| Cc1cc(C)nc(NC(=S)N2CCN(c3ccc4nsnc4c3)CC2)c1.O=C(O)C(F)(F)F [NCGC00244160-01] | -93% | -2.2 | -106% | YES | -2.1 | – | – | – | – | – | – | – | -85% | -2.1 | 50.1 µM | IC50 ([1]; counterscreen): 39.8 µM |
| FC(F)(F)c1cccc(N2CCN(C(=S)Nc3nccc4cccnc34)CC2)c1.O=C(O)C(F)(F)F [NCGC00244201-01] | -43% | -1.2 | -88% | YES | -2.2 | -55% | 28.2 µM | – | – | – | – | – | – | – | – | IC50 ([1]; counterscreen): 22.4 µM; Curve Class [2, 17]: -1.2 |
| O=C(NCCCN1CCNCC1)c1cccc(-c2cc(O)c3ncccc3c2)c1.O=C(O)C(F)(F)F [NCGC00244531-01] | – | – | – | – | – | -46% | 39.8 µM | -1.2 | -52% | 35.5 µM | 4 | -33% | – | – | – | Confirm? (counterscreen) [1, 8]: YES; Curve Class [2, 17]: -2.2 |
| COc1ccc(CC(=O)Nc2ccc(S(=O)(=O)Nc3cc(C)on3)cc2)cc1C.O=C(O)C(F)(F)F [NCGC00244861-01] | -14% | 4 | -69% | YES | -2.4 | – | – | – | – | – | – | – | -19% | -1.4 | 11.2 µM | Confirm? (counterscreen) ([1]; counterscreen, YES/NO): YES; IC50 [2, 5]: 39.8 µM |
| Cc1cc(NS(=O)(=O)c2ccc(NC(=O)Cc3ccc(F)c(Cl)c3)cc2)no1.O=C(O)C(F)(F)F [NCGC00244873-01] | – | – | – | – | – | -25% | 10 µM | – | – | – | – | – | – | – | – | COUNTERSCREEN Efficacy (%) ([1]; counterscreen): -17%; COUNTERSCREEN Curve Class ([1]; counterscreen): 4; CONFIRMATORY SCREEN Efficacy (%) ([2]; confirmatory screen): -48%; CONFIRMATORY SCREEN Curve Class ([2]; confirmatory screen): 4 |
| Cc1cc(NS(=O)(=O)c2ccc(NC(=O)Cc3cccc4ccccc34)cc2)no1.O=C(O)C(F)(F)F [NCGC00244880-01] | – | – | – | – | – | – | – | -2.2 | -64% | 20 µM | -2.2 | -48% | -21% | -1.4 | 17.8 µM | Confirm? (confirmatory screen) [2, 18]: YES; IC50 [2, 19]: 31.6 µM |
| Cc1coc2c1C(=O)C(=O)c1c-2ccc2c(C)cccc12 [NCGC00247624-03] | -73% | -2.2 | -85% | YES | -2.2 | -40% | 39.8 µM | – | – | – | – | – | – | – | – | IC50 ([1]; counterscreen): 44.7 µM; Curve Class [2, 17]: -2.2 |
| CN(C)CCc1c[nH]c2cccc(O)c12 [NCGC00247728-01] | – | – | – | – | – | – | – | -2.1 | -126% | 89.1 µM | -2.2 | -101% | -105% | -2.3 | 28.2 µM | Confirm? (confirmatory screen) [2, 18]: YES; IC50 [2, 19]: 112 µM |
| CN(C)CC1CCCN(C2CCN(C(=O)c3cccc(-c4cc(O)c5ncccc5c4)c3)CC2)C1.O=C(O)C(F)(F)F (stereo not shown) [NCGC00247737-01] | – | – | – | – | – | -45% | 22.4 µM | -2.2 | -46% | 39.8 µM | 4 | -41% | – | – | – | Confirm? (counterscreen) [1, 8]: YES; Curve Class [2, 17]: -1.2 |
| CN(C)CCCCCCNC(=O)c1cccc(-c2cc(O)c3ncccc3c2)c1.O=C(O)C(F)(F)F [NCGC00247743-01] | – | – | – | – | – | – | – | -2.4 | -55% | 44.7 µM | 4 | -35% | -33% | -1.2 | 22.4 µM | Confirm? (counterscreen) [1, 8]: YES |
| O=C(Nc1nc(-c2ccccc2)cs1)c1ccccc1NS(=O)(=O)c1ccc(F)cc1.O=C(O)C(F)(F)F [NCGC00247844-02] | – | – | – | – | – | – | – | – | 102% | 50.1 µM | 3 | 48% | -24% | -1.4 | 17.8 µM | – |
| O=C(Cc1ccc(Cl)c(Cl)c1)Nc1ccc(S(=O)(=O)Nc2nncs2)cc1.O=C(O)C(F)(F)F [NCGC00248349-02] | – | – | – | – | – | – | – | – | – | – | – | – | -24% | – | 11.2 µM | COUNTERSCREEN Efficacy (%) [1, 20]: 12%; COUNTERSCREEN Confirm? [1, 21]: YES; COUNTERSCREEN Curve Class [1, 20]: 4; CONFIRMATORY SCREEN Confirm? [2, 22]: YES; CONFIRMATORY SCREEN Curve Class [2, 4]: -1.4; CONFIRMATORY SCREEN Efficacy (%) [2, 23]: -31%; IC50 ([2]; confirmatory screen, read-out: CONFIRMATORY SCREEN IC50): 12.6 µM; Curve Class [2, 16]: -1.4 |
| O=C(Cc1ccc(Cl)c(Cl)c1)Nc1ccc(S(=O)(=O)Nc2cccc(C(=O)O)c2)cc1.O=C(O)C(F)(F)F [NCGC00248362-01] | – | – | – | – | – | – | – | – | – | – | – | – | -20% | – | 12.6 µM | COUNTERSCREEN Efficacy (%) [1, 20]: 26%; COUNTERSCREEN Confirm? [1, 21]: YES; COUNTERSCREEN Curve Class [1, 20]: 4; CONFIRMATORY SCREEN Confirm? [2, 22]: YES; CONFIRMATORY SCREEN Curve Class [2, 4]: -1.4; CONFIRMATORY SCREEN Efficacy (%) [2, 23]: -27%; Curve Class [2, 16]: -1.4 |
| O=C(Cc1ccc(Cl)c(Cl)c1)Nc1ccc(S(=O)(=O)Nc2cnccn2)cc1.O=C(O)C(F)(F)F [NCGC00248365-02] | -24% | 4 | -30% | YES | -1.4 | -26% | 17.8 µM | – | – | – | – | – | – | – | – | Confirm? (counterscreen) ([1]; counterscreen, YES/NO): YES |
| Cc1c2c(=O)n(-c3ccccc3)[nH]c2cc(=O)n1-c1cccnc1.O=C(O)C(F)(F)F [NCGC00248472-01] | – | – | – | – | – | -31% | 39.8 µM | -2.2 | -60% | 39.8 µM | 4 | -23% | – | – | – | Confirm? (counterscreen) [1, 8]: YES |
| O=C(c1cc(O)c(O)c(O)c1)c1ccc(O)c(O)c1O [NCGC00249050-02] | – | – | – | – | – | – | – | -1.1 | -99% | 25.1 µM | -2.1 | -86% | -42% | -2.2 | 39.8 µM | Confirm? (confirmatory screen) [2, 18]: YES; IC50 [2, 19]: 25.1 µM |
| CCN1CCN(c2ccc(Nc3ccc(-c4ccc(C(N)=O)cc4)n4ncnc34)cc2)CC1.O=C(O)C(F)(F)F [NCGC00249351-01] | -68% | -2.2 | -64% | YES | -2.4 | -39% | 35.5 µM | – | – | – | – | – | – | – | – | IC50 ([1]; counterscreen): 50.1 µM; IC50 [2, 5]: 22.4 µM; Curve Class [2, 17]: -2.2 |
